Source: patent EP0670315A1, “Triazole oxime derivatives having antimycotic acitivity” (priority 1994, dated 1995)
In brackets after ≈: the same amount, converted by molar mass. Where two headings read alike, the source gives them in different places.

Assays:
[1] = reported in prior art; cited from earlier work
[2] = test system: Aspergillus fumigatus strain IFM0063; experiment: Minimum Inhibitory Concentration (MIC), agar plate dilution method; assay type: cell-based; settings: Sabouraud's dextrose agar, 30°C for 2 days, visual growth
Experimental: (§1) MIC measurements were conducted by an agar plate dilution method. Stated specifically, Aspergillus fumigatus strains IFM0063 and IFM4942 were cultured on a potato dextrose agar medium at 27°C for 10 days, and the growing conidia were suspended in a sterile physiological saline containing 0.05% Tween 80 to give a concentration of 10⁸ - 10⁹ conidia per ml. The suspension was conditioned in a Sabouraud's dextrose broth medium at a concentration of 10⁵ spores per ml and a 5-µl aliquot of the culture was inoculated into a drug-containing Sabouraud's dextrose agar medium and cultured at 30°C for 2 days. The growth of fungi was observed visually and the minimum concentration of the test drug that could inhibit the fungal growth was designated as its MIC.

[3] = test system: Aspergillus fumigatus strain IFM4942; experiment: as above; assay type: cell-based; settings: Sabouraud's dextrose agar, 30°C for 2 days, visual growth
Experimental: as §1

[4] = test system: Aspergillus fumigatus strain IFM41944; experiment: Treatment of infection, protocol 1: mice infected with Aspergillus fumigatus, oral treatment, survival; assay type: in vivo; settings: for ED50: Aspergillus fumigatus, IFM41944, ICR male mice, i.v. infection 1 × 10⁷ conidia, oral one hour after infection and following four days once a day, survival at 7th day, Litchfield-Wilcoxon, read-out: ED₅₀
Experimental: (§2) Mice infected with Aspergillus fumigatus were administered selected compounds of the invention orally and their therapeutic effect was measured. Stated specifically, ICR male mice (4-wk old) in groups each consisting of 10 animals were injected with Aspergillus fumigatus strain IFM41944 by injecting it into the tail vein at a concentration of 1 × 10⁷ conidia per animal. Each test compound was administered orally to the mice one hour after the infection and for the following four continuous days on a once-a-day basis. The number of mice that survived at the 7th day of the infection was counted (the day of infection was day "zero") and the ED₅₀ of each test compound was calculated by the Litchfield-Wilcoxon method to estimate its therapeutic effect.

[5] = test system: Candida albicans strain IFM40009; experiment: Treatment of infection, protocol 3: cyclophosphamide-immunosuppressed mice infected with Candida albicans, oral treatment, survival; assay type: in vivo; settings: ICR male mice immunosuppressed with cyclophosphamide 100 mg/kg i.p. twice, i.v. infection 1 × 10⁶ cells, oral once after an hour of infection, survival at 7th day, read-out: ED₅₀
Experimental: Experimentally prepared immunosuppressed mice were infected with Candida albicans; they were then administered selected compounds of the invention orally and the therapeutic effect of the compounds was measured.
Stated specifically, ICR male mice (4-wk old) in groups each consisting of 10 animals were administered cyclophosphamide intraperitoneally at a dose of 100 mg/kg; four days later, the mice were similarly administered cyclophosphamide intraperitoneally to be rendered experimentally immunosuppressed. Simultaneously with the second shot of cyclophosphamide, Candida albicans strain IFM40009 was administered to the tail vein of each animal at a concentration of 1 × 10⁶ cells per animal to induce infection. Each test compound was administered orally to the mice once after an hour of infection.
The number of mice that survived at the 7th day of the infection was counted (the day of infection was day "zero") and the ED₅₀ of each test compound was calculated by the Litchfield-Wilcoxon method to estimate its therapeutic effect.

[6] = Toxicity test, repeated oral administration to mice; assay type: in vivo; settings: 4-wk old mice, 5 consecutive days, 100 mg/kg
Experimental: The four selected compounds of the invention (those prepared in Examples 1, 2, 9 and 30) were administered orally to 4-wk old mice for 5 consecutive days at a dose of 100 mg/kg.

[7] = Solubility (usefulness as injections); assay type: physicochemical
[8] = test system: Candida albicans strain IFM40009; experiment: Treatment of infection, protocol 2: mice infected with Candida albicans, oral treatment, survival; assay type: in vivo; settings: ICR male mice, i.v. infection 1 × 10⁶ cells, oral once after an hour of infection, survival at 7th day, Litchfield-Wilcoxon
Experimental: as §2, with “Candida albicans” for “Aspergillus fumigatus”, “IFM40009” for “IFM41944”, “10⁶ cells” for “10⁷ conidia”, “once after an” for “one”, “of infection.” for “after the infection and for the following four continuous days on a once-a-day basis.”

[9] = Aspergillus fumigatus, IFM0063, 48 h, read-out: MIC
[10] = Aspergillus fumigatus, IFM4942, 48 h, read-out: MIC

| MIC [2, 9] [µg/mL] | MIC [3, 10] [µg/mL] | SMILES | ED50 [8] [mg/kg] | further results |
| --- | --- | --- | --- | --- |
| – | – | CON=CC(C)(C)C(O)(Cn1cncn1)c1ccc(Cl)cc1 (racemic) [Bay R 3783, (±)-3-(4-chlorophenyl)-2,2-dimethyl-3-hydroxy-4-(1,2,4-triazole-1-yl)butanol-oxime O-methylether] | – | hepatotoxicity as a side effect [1]: has hepatotoxicity as a side effect |
| – | – | COCON=C(C(C)C)C1(C(O)(Cn2cncn2)c2ccc(F)cc2F)CC1 (single isomer, unassigned; (-)) [Example 4, (-)-1-[1-[1-(2,4-difluorophenyl)-1-hydroxy-2-(1H-1,2,4-triazol-1-yl)ethyl]cyclopropyl]-2-methyl-1-propanone O-(methoxymethyl)oxime] | – | MIC [2]: 12.5 µg/mL (≈ 31.7 µM); MIC [3]: 12.5 µg/mL (≈ 31.7 µM) |
| 3.13 (≈ 8.59 µM) | 3.13 (≈ 8.59 µM) | CON=C(C(C)C)C1(C(O)(Cn2cncn2)c2ccc(F)cc2F)CC1 (single isomer, unassigned; (-)) [Example 6, (-)-1-[1-[1-(2,4-difluorophenyl)-1-hydroxy-2-(1H-1,2,4-triazol-1-yl)ethyl]cyclopropyl]-2-methyl-1-propanone O-methyl oxime] | – | – |
| 25 (≈ 63.4 µM) | 25 (≈ 63.4 µM) | COCON=C(C(C)C)C1(C(O)(Cn2cncn2)c2ccc(F)cc2F)CC1 (centres unmarked) [Example 1, 1-[1-[1-(2,4-difluorophenyl)-1-hydroxy-2-(1H-1,2,4-triazol-1-yl)ethyl]cyclopropyl]-2-methyl-1-propanone O-(methoxymethyl)oxime] | – | ED50 [4]: 30.3 mg/kg; ED50 [5]: 4.9 mg/kg; evidence for abnormality [6]: no evidence for abnormality |
| 12.5 (≈ 31.7 µM) | 25 (≈ 63.4 µM) | CCCC(=NOCOC)C1(C(O)(Cn2cncn2)c2ccc(F)cc2F)CC1 (centres unmarked) [Example 8] | – | ED50 [4]: 27.7 mg/kg |
| 6.25 (≈ 17.2 µM) | 6.25 (≈ 17.2 µM) | CCCC(=NOC)C1(C(O)(Cn2cncn2)c2ccc(F)cc2F)CC1 (centres unmarked) [Example 9] | – | ED50 [4]: 20.2 mg/kg; evidence for abnormality [6]: no evidence for abnormality |
| 6.25 (≈ 16.4 µM) | 12.5 (≈ 32.9 µM) | CCC(=NOCOC)C1(C(O)(Cn2cncn2)c2ccc(F)cc2F)CC1 (centres unmarked) [Example 10] | – | – |
| 3.13 (≈ 8.93 µM) | 3.13 (≈ 8.93 µM) | CCC(=NOC)C1(C(O)(Cn2cncn2)c2ccc(F)cc2F)CC1 (centres unmarked) [Example 11] | – | – |
| 12.5 (≈ 31.9 µM) | 12.5 (≈ 31.9 µM) | COCON=C(C1CC1)C1(C(O)(Cn2cncn2)c2ccc(F)cc2F)CC1 (centres unmarked) [Example 15] | – | – |
| 3.13 (≈ 9.25 µM) | 3.13 (≈ 9.25 µM) | CON=C(C)C(C)(C)C(O)(Cn1cncn1)c1ccc(F)cc1F (centres unmarked) [Example 21] | – | – |
| 1.56 (≈ 4.43 µM) | 3.13 (≈ 8.88 µM) | CCC(=NOC)C(C)(C)C(O)(Cn1cncn1)c1ccc(F)cc1F (centres unmarked) [Example 22] | – | – |
| 6.25 (≈ 19.3 µM) | 12.5 (≈ 38.5 µM) | CC(=NO)C(C)(C)C(O)(Cn1cncn1)c1ccc(F)cc1F (centres unmarked) [Example 29] | – | – |
| – | – | CC(C)C(=NOCn1cncn1)C1(C(O)(Cn2cncn2)c2ccc(F)cc2F)CC1 (centres unmarked) [Example 30, 1-[1-[1-(2,4-difluorophenyl)-1-hydroxy-2-(1H-1,2,4-triazol-1-yl)ethyl]cyclopropyl]-2-methyl-1-propanone O-[(1H-1,2,4-triazol-1-yl)methyl]oxime] | – | ED50 [4]: 43.4 mg/kg; evidence for abnormality [6]: no evidence for abnormality; solubility [7]: good enough solubility to be useful as injections |
| 12.5 (≈ 33 µM) | 12.5 (≈ 33 µM) | CCON=C(C(C)C)C1(C(O)(Cn2cncn2)c2ccc(F)cc2F)CC1 (centres unmarked) [Example 38] | – | – |
| 12.5 (≈ 32.1 µM) | 12.5 (≈ 32.1 µM) | CC(C)C(=NOCC#N)C1(C(O)(Cn2cncn2)c2ccc(F)cc2F)CC1 (centres unmarked) [Example 40] | – | – |
| 12.5 (≈ 30.5 µM) | 12.5 (≈ 30.5 µM) | CSCON=C(C(C)C)C1(C(O)(Cn2cncn2)c2ccc(F)cc2F)CC1 (centres unmarked) [Example 41] | – | – |
| 25 (≈ 63.7 µM) | 25 (≈ 63.7 µM) | CCCON=C(C(C)C)C1(C(O)(Cn2cncn2)c2ccc(F)cc2F)CC1 (centres unmarked) [Example 42] | – | – |
| 12.5 (≈ 27.3 µM) | 12.5 (≈ 27.3 µM) | CC(C)C(=NOCCBr)C1(C(O)(Cn2cncn2)c2ccc(F)cc2F)CC1 (centres unmarked) [Example 44, 1-[1-[1-(2,4-difluorophenyl)-1-hydroxy-2-(1H-1,2,4-triazol-1-yl)ethyl]cyclopropyl]-2-methyl-1-propanone O-(2-bromoethyl)oxime] | 14.6 | – |
| – | – | CCCC(=NOCn1cncn1)C1(C(O)(Cn2cncn2)c2ccc(F)cc2F)CC1 (centres unmarked) [Example 46] | 15.7 | – |
| 3.13 (≈ 8.36 µM) | 3.13 (≈ 8.36 µM) | C#CCON=C(CC)C1(C(O)(Cn2cncn2)c2ccc(F)cc2F)CC1 (centres unmarked) [Example 51] | 11.3 | – |
| 1.56 (≈ 3.93 µM) | 3.13 (≈ 7.89 µM) | CCC(=NOCSC)C1(C(O)(Cn2cncn2)c2ccc(F)cc2F)CC1 (centres unmarked) [Example 53] | 13.5 | – |
| 3.13 (≈ 7.06 µM) | 3.13 (≈ 7.06 µM) | CCC(=NOCCBr)C1(C(O)(Cn2cncn2)c2ccc(F)cc2F)CC1 (centres unmarked) [Example 55] | 14.7 | – |
| 6.25 (≈ 15.9 µM) | 6.25 (≈ 15.9 µM) | CCCCON=C(CC)C1(C(O)(Cn2cncn2)c2ccc(F)cc2F)CC1 (centres unmarked) [Example 56] | 14.7 | – |
| – | – | CCC(=NOCn1cncn1)C1(C(O)(Cn2cncn2)c2ccc(F)cc2F)CC1 (centres unmarked) [Example 58] | 13.2 | – |
| 6.25 (≈ 14.6 µM) | 6.25 (≈ 14.6 µM) | CCC(=NOCc1ccncc1)C1(C(O)(Cn2cncn2)c2ccc(F)cc2F)CC1 (centres unmarked) [Example 59] | 10.7 | – |
| – | – | COC(OC)ON=C(C(C)C)C1(C(O)(Cn2cncn2)c2ccc(F)cc2F)CC1 (centres unmarked) [Example 72, 1-[1-[1-(2,4-difluorophenyl)-1-hydroxy-2-(1H-1,2,4-triazol-1-yl)ethyl]cyclopropyl]-2-methyl-1-propanone O-(dimethoxymethyl)oxime] | 13.5 | – |
| – | – | COC(C)(OC)ON=C(C(C)C)C1(C(O)(Cn2cncn2)c2ccc(F)cc2F)CC1 (centres unmarked) [Example 73, 1-[1-[1-(2,4-difluorophenyl)-1-hydroxy-2-(1H-1,2,4-triazol-1-yl)ethyl]cyclopropyl]-2-methyl-1-propanone O-(1-dimethoxyethyl)oxime] | 5.8 | – |
| – | – | COC(C)(C)ON=C(C(C)C)C1(C(O)(Cn2cncn2)c2ccc(F)cc2F)CC1 (centres unmarked) [Example 74, 1-[1-[1-(2,4-difluorophenyl)-1-hydroxy-2-(1H-1,2,4-triazol-1-yl)ethyl]cyclopropyl]-2-methyl-1-propanone O-(1-methoxy-1-methylethyl)oxime] | 8.9 | – |
| – | – | COC(C)ON=C(C(C)C)C1(C(O)(Cn2cncn2)c2ccc(F)cc2F)CC1 (centres unmarked) [Example 75, 1-[1-[1-(2,4-difluorophenyl)-1-hydroxy-2-(1H-1,2,4-triazol-1-yl)ethyl]cyclopropyl]-2-methyl-1-propanone O-(1-methoxyethyl)oxime] | 8.6 | – |
| – | – | CCC(C)n1ncn(-c2ccc(N3CCN(c4ccc(OCC5COC(Cn6cncn6)(c6ccc(Cl)cc6Cl)O5)cc4)CC3)cc2)c1=O (centres unmarked) [Itraconazole, itraconazole, reference compound] | – | ED50 [4]: > 100 mg/kg |

| SMILES | MIC [2, 9] [µg/mL] | MIC [3, 10] [µg/mL] | ED50 [8] [mg/kg] | further results |
| --- | --- | --- | --- | --- |
| OC(Cn1cncn1)(Cn1cncn1)c1ccc(F)cc1F [Fluconazole, fluconazole, reference compound] | > 100 | > 100 | 11.7 | ED50 [4]: > 100 mg/kg; antimycotic action in Aspergillus fumigatus infected animal models ([4]; doses up to 100 mg/kg, oral, mice): did not show any antimycotic action; ED50 [5]: 54.4 mg/kg |
